For orientation: EC50 means the midpoint of the concentration-response curve.

This is an account of results in article PMC9964242 (Vaccines, 2023).

In brackets after ≈: the same amount, converted by molar mass. Several values for one entry are separate records, joined by “and”; a condition that tells them apart may be missing. Identical values can stand only once. Like-named read-outs stand apart in the source and are kept apart here. Some results are limits rather than exact numbers.

In data set [1] the test system is seasonal influenza A/H1N1 virus. It counts as cell-based.
In data set [2] the test system is influenza A/chicken/Egypt/N12640A/2016 (H5N1). The data set can be described thus: microbe, parasite or virus in culture. It counts as cell-based, influenza A/H5N1 virus. To be noted: for IC50: Influenza A virus, H5N1, MDCK, read-out: IC50 (half-maximal inhibitory concentration).
A short description of another data set: in vitro. To be noted: dog.
The subject of data set [3] is influenza A/Egypt/NRC098/2019(H1N1).
The test system of data set [4] is seasonal influenza A/H1N1 virus. The class given is cell-based. This is another data set of the same source.
Data set [5] has the same test system. The class given is cell-based. To be noted: for Viral inhibition / inactivation of viral infectivity through direct viricidal action: 10–100 µg/mL.
Data set [6] has as its system influenza A/Egypt/NRC098/2019(H1N1). The data set can be described thus: microbe, parasite or virus in culture. To be noted: H1N1, MDCK.
The test system of data set [7] is MDCK cells.
The next data set has as its system Zika virus. To be noted: cited from earlier work.
The subject of data set [8] is MDCK cells. To be noted: cited from earlier work.
The test system of a further data set is A/ShanTou/169/06 (H1N1). To be noted: cited from earlier work.
[9] abbreviates: read-out: IC50 (half-maximal inhibitory concentration).

With `CC[C@H](CC[C@@H](C)[C@H]1CC[C@H]2[C@@H]3CC=C4C[C@@H](O[C@@H]5O[C@H](CO)[C@@H](O)[C@H](O)[C@H]5O)CC[C@]4(C)[C@H]3CC[C@]12C)C(C)C` [β-sitosterol-O-glucoside], the “Plaque reduction %, Viral Adsorption” value in data set [1] was 35.8% and 48.3% and 56.9%. Also, in data set [2], the IC50 amounted to 0.613 µg/mL (≈ 1.06 µM). Moreover, in the data set “in vitro”, the CC50 came to 1750 µg/mL (≈ 3030 µM). Further, the “SI (selectivity index = CC50/IC50)” value in data set [3] is reported as 2434. Besides, in data set [4], the “Plaque reduction %, Viral Replication” value is 28.7% and 37.7% and 52.8%. In [5], the “Plaque reduction %, Viricidal” value was 83.6% and 93.3% and 97.1%; the “Viral inhibition / inactivation of viral infectivity through direct viricidal action” value is on record as “up to 90%”. Further, in data set [6] (setting [9]), the IC50 came out at 0.719 µg/mL (≈ 1.25 µM). For the same molecule, the “CC50 (half-maximal cytotoxic concentration)” value with MDCK cells [7] (dog) is 1750 µg/mL (≈ 3030 µM).
On to `C[C@@H]1O[C@@H](O[C@H]2[C@H](Oc3cc(O)c4c(c3)O[C@H](c3ccc(O)cc3)CC4=O)O[C@H](CO)[C@@H](O)[C@@H]2O)[C@H](O)[C@H](O)[C@H]1O` [Naringin], for which, in the data set “in vitro”, the CC50 was > 10000 µg/mL. Besides, in data set [3], the “Antiviral activity against A/H1N1 (in words)” value (from here on “Antiviral activity”) is listed as “moderate antiviral activity” and the “SI (selectivity index = CC50/IC50)” value is on record as >485.43. Also, the IC50 in [6] turned out to be 20.7 µg/mL (≈ 35.6 µM). Moreover, the IC50 in data set [6] (setting [9]) was 20.6 µg/mL (≈ 35.5 µM).
On to `C[C@@H]1CC[C@@]2(OC1)O[C@H]1[C@@H](O)[C@H]3[C@@H]4CC[C@H]5C[C@@H](O[C@@H]6O[C@H](CO)[C@H](O[C@@H]7O[C@H](CO)[C@@H](O)[C@H](O[C@@H]8OC[C@@H](O)[C@H](O)[C@H]8O)[C@H]7O[C@@H]7O[C@H](CO)[C@H](O)[C@H](O[C@@H]8O[C@H](CO)[C@@H](O)[C@H](O)[C@H]8O)[C@H]7O)[C@H](O)[C@H]6O)[C@H](O)C[C@]5(C)[C@H]4CC[C@]3(C)[C@H]1[C@@H]2C` [Digitonin], for which, in the data set “in vitro”, the CC50 came out at 442 µg/mL (≈ 360 µM). Also, the “Antiviral activity” value in [3] was “moderate antiviral activity”. The “SI (selectivity index = CC50/IC50)” value in data set [3] amounted to 20.56. Besides, the figures for the IC50 (in the data set with Zika virus; in data set [6]; in data set [6] (setting [9])) were 7.91 µM, 21.6 µg/mL (≈ 17.5 µM) and 21.5 µg/mL (≈ 17.5 µM), respectively. Moreover, in the data set with MDCK cells [7] (dog), the “CC50 (half-maximal cytotoxic concentration)” value is 442 µg/mL (≈ 360 µM).
With `Cc1cc(O)c2c(c1)C(=O)c1cccc(O)c1C2=O` [Chrysophanic acid], the CC50 in the data set “in vitro” stood at 46.1 µg/mL (≈ 181 µM). In [3], the “IC50 relative to CC50 (in words)” value was “IC50 > CC50”. Further, the “CC50 (half-maximal cytotoxic concentration)” value in the data set on MDCK cells [7] (dog) was 46.1 µg/mL (≈ 181 µM).
Molecule `O=c1cc(-c2ccccc2)oc2cc(O)ccc12` [7-Hydroxy flavone] yielded a CC50 in “in vitro” of 5830 µg/mL (≈ 24500 µM). Besides, in data set [3], the “Antiviral activity” value was “poor antiviral activity” and the “SI (selectivity index = CC50/IC50)” value is recorded as 16.194. In data set [6] (setting [9]), the IC50 amounted to 360 µg/mL (≈ 1510 µM). In addition, the “CC50 (half-maximal cytotoxic concentration)” value with MDCK cells [7] (dog) came out at 5830 µg/mL (≈ 24500 µM).
Molecule `O=C[C@H](O)[C@@H](O)[C@H](O)[C@H](O)C(=O)O` [D-Glucuronic acid, Glucuronic acid] returned a CC50 in the data set “in vitro” of 10300 µg/mL (≈ 52800 µM). Besides, the “IC50 relative to CC50 (in words)” value in data set [3] is “IC50 > CC50”. Besides, the “CC50 (half-maximal cytotoxic concentration)” value in the data set on MDCK cells [7] (dog) came to 10260 µg/mL (≈ 52800 µM).
With `O=C(O)/C=C/c1ccccc1O` [O-Coumaric acid], the CC50 in “in vitro” came to 9170 µg/mL (≈ 55900 µM). Besides, the “IC50 relative to CC50 (in words)” value in data set [3] was “IC50 > CC50”. The “CC50 (half-maximal cytotoxic concentration)” value in the data set with MDCK cells [7] (dog) was found to be 9172 µg/mL (≈ 55900 µM).
Regarding `OC[C@@H](O)[C@@H](O)[C@H](O)[C@@H](O)CO` [D-sorbitol], in “in vitro”, the CC50 was > 10000 µg/mL. Further, the “SI (selectivity index = CC50/IC50)” value in data set [3] is >3.215. The IC50 in [6] (setting [9]) was determined as 3110 µg/mL (≈ 17100 µM).
`O=C1c2cccc(O)c2C(=O)c2c(O)cc(CO)cc21` [Aloe emodin]: the CC50 in the data set “in vitro” is 2280 µg/mL (≈ 8440 µM). Also, the “SI (selectivity index = CC50/IC50)” value in [3] is recorded as 3.127. The IC50 in [6] (setting [9]) was determined as 729 µg/mL (≈ 2700 µM). The “CC50 (half-maximal cytotoxic concentration)” value in the data set on MDCK cells [7] (dog) is 2280 µg/mL (≈ 8440 µM).
Turning to `COc1cc(C2Oc3cc([C@H]4Oc5cc(O)cc(O)c5C(=O)[C@@H]4O)ccc3OC2CO)ccc1O` (some centres unmarked) [Silybin], the CC50 in the data set with MDCK cells [8] was > 400 µM. In addition, in the data set on A/ShanTou/169/06 (H1N1), the EC50 was 70.8 ± 8.11 µM. The molecule also showed a CC50 in the data set “in vitro” of 9480 µg/mL (≈ 19700 µM). Besides, in data set [3], the “Antiviral activity” value is reported as “poor anti-influenza potential” and the “IC50 relative to CC50 (in words)” value is listed as “IC50 > CC50”. Moreover, the “CC50 (half-maximal cytotoxic concentration)” value in the data set with MDCK cells [7] (dog) was found to be 9480 µg/mL (≈ 19700 µM).
As to `OC[C@H]1O[C@@H](Oc2ccc(O)cc2)[C@H](O)[C@@H](O)[C@@H]1O` [Arbutin], the CC50 in the data set “in vitro” is > 10000 µg/mL. For the same molecule, the “SI (selectivity index = CC50/IC50)” value in data set [3] is >13.09. In data set [6] (setting [9]), the IC50 was determined as 764 µg/mL (≈ 2810 µM).
With `COc1cc(C=O)ccc1O` [Vanillin], in the data set “in vitro”, the CC50 is 242 µg/mL (≈ 1590 µM). The “IC50 relative to CC50 (in words)” value in [3] is “IC50 > CC50”. Also, the “CC50 (half-maximal cytotoxic concentration)” value in the data set with MDCK cells [7] (dog) was determined as 242 µg/mL (≈ 1590 µM).
As for `O=C1CC(c2ccccc2)Oc2ccccc21` (centres unmarked) [Flavanone], in data set [3], the “IC50 relative to CC50 (in words)” value was “IC50 > CC50”. Also, in the data set on MDCK cells [7], the “CC50 (half-maximal cytotoxic concentration)” value is 450 µg/mL (≈ 2010 µM).
In the case of `C=C(C)[C@@H]1CC[C@]2(C)CC[C@]3(C)[C@H](CC[C@@H]4[C@@]5(C)CC[C@H](O)C(C)(C)[C@@H]5CC[C@]43C)[C@@H]12` [Lupeol], the CC50 in “in vitro” stood at 560 µg/mL (≈ 1310 µM). The “SI (selectivity index = CC50/IC50)” value in data set [3] is on record as 5.98. Also, the IC50 in [6] amounted to 93.7 µg/mL (≈ 220 µM); in [6] (setting [9]), 93.6 µg/mL (≈ 219 µM). Further, in the data set with MDCK cells [7] (dog), the “CC50 (half-maximal cytotoxic concentration)” value was determined as 560 µg/mL (≈ 1310 µM).
Molecule `O=C[C@H](O)[C@@H](O)[C@@H](O)[C@H](O)C(=O)O` [D-Galacturonic acid, Galacturonic acid] yielded a CC50 in the data set “in vitro” of 9610 µg/mL (≈ 49500 µM). Further, the “IC50 relative to CC50 (in words)” value in data set [3] was “IC50 > CC50”. The “CC50 (half-maximal cytotoxic concentration)” value with MDCK cells [7] (dog) was determined as 9610 µg/mL (≈ 49500 µM).
For the molecule `C[C@]12CC[C@@H]3c4ccc(O)cc4CC[C@H]3[C@@H]1CC[C@@H]2O` [Estradiol, estradiol, reference compound], the CC50 in the data set “in vitro” was > 5000 µg/mL. Moreover, in data set [6], the IC50 came to 7.1 µg/mL (≈ 26.1 µM).
`CC[C@H](CC[C@@H](C)[C@H]1CC[C@H]2[C@@H]3CC=C4C[C@@H](O)CC[C@]4(C)[C@H]3CC[C@]12C)C(C)C` [β-sitosterol]: the “Plaque reduction %, Viral Adsorption” value in data set [1] is 28% and 37.5% and 52.5%. Further, the IC50 in [2] came out at 0.295 µg/mL (≈ 0.711 µM). Also, the CC50 in the data set “in vitro” stood at 9900 µg/mL (≈ 23900 µM). Moreover, the “SI (selectivity index = CC50/IC50)” value in data set [3] was 10,154. The “Plaque reduction %, Viral Replication” value in data set [4] was 31.8% and 41.2% and 52.9%. Also, in data set [5], the “Plaque reduction %, Viricidal” value is 84% and 98.5% and 99%; the “Viral inhibition / inactivation of viral infectivity through direct viricidal action” value is on record as “up to 90%”. The IC50 in [6] (setting [9]) amounted to 0.975 µg/mL (≈ 2.35 µM). Moreover, the “CC50 (half-maximal cytotoxic concentration)” value in the data set on MDCK cells [7] (dog) stood at 9900 µg/mL (≈ 23900 µM).
As to `O=c1c(O[C@@H]2O[C@H](CO)[C@@H](O)[C@H](O)[C@H]2O)c(-c2ccc(O)c(O)c2)oc2cc(O)cc(O)c12` [Isoquercitrin], the CC50 in “in vitro” was 710 µg/mL (≈ 1530 µM). Further, in data set [3], the “Antiviral activity” value is recorded as “poor antiviral potential” and the “SI (selectivity index = CC50/IC50)” value was 4.25. In addition, the IC50 in [6] (setting [9]) came to 167 µg/mL (≈ 360 µM). Besides, the “CC50 (half-maximal cytotoxic concentration)” value in the data set on MDCK cells [7] (dog) came out at 710 µg/mL (≈ 1530 µM).
In the case of `C[C@@H]1O[C@@H](Oc2cc(O)c3c(=O)c(O[C@@H]4O[C@@H](C)[C@H](O)[C@@H](O)[C@H]4O)c(-c4ccc(O)cc4)oc3c2)[C@H](O)[C@H](O)[C@H]1O` [Kaempferitrin], the CC50 in the data set “in vitro” is > 10000 µg/mL. Also, in data set [3], the “Antiviral activity” value is recorded as “moderate antiviral activity” and the “SI (selectivity index = CC50/IC50)” value is given as >209.20. For the same molecule, the IC50 in data set [6] (setting [9]) came out at 47.8 µg/mL (≈ 82.6 µM).
`O=C1C[C@@H](c2ccccc2)Oc2cc(O)cc(O)c21` [Pinocembrin]: the CC50 in the data set “in vitro” is > 10000 µg/mL. In addition, the “Antiviral activity” value in data set [3] is listed as “poor anti-H1N1 activity”. Also, the IC50 in data set [6] (setting [9]) was > 10000 µg/mL.
Take `CC(=O)N[C@H]1[C@H]([C@H](O)[C@H](O)CO)OC(C(=O)O)=C[C@@H]1N=C(N)N` [Zanamivir, reference compound]: the “SI (selectivity index = CC50/IC50)” value in data set [2] is given as >37,736; in [3], >12,626. The IC50 in data set [2] worked out at 0.265 µg/mL (≈ 0.797 µM); in [6] (setting [9]), 0.792 µg/mL (≈ 2.38 µM). Besides, the CC50 in “in vitro” was > 10000 µg/mL.
